Drawing on a melting point compilation (Tetko et al.), this text covers melting point for 140 molecules.

Molecules are shown by their SMILES.

The conditions of this data set: a range is the spread between reports.
The term melting point denotes the temperature of the solid-liquid transition. Take `COC(=O)CCl`: the melting point is -32.1 to -32 °C.
For the molecule `CC(C)OC(=O)C=CC(=O)OC(C)C`, the melting point was 2 to 2.1 °C.
With `CCCOC(=O)CC` the figure was -76 to -75.9 °C; with `C#CC(C)(O)c1ccccc1` (stereo not given), 48 to 52.3 °C.
The value for `C1CSCCS1` was 111 to 112 °C; that for `C=CS(=O)(=O)c1ccccc1` was 68 to 69 °C; that for `COc1ccc(OC)c(C=O)c1` was 49 to 52 °C.
With `CC(=O)N1CCOCC1` the figure was 10 to 14.5 °C; with `CC1=CCC(C(C)(C)O)CC1O` (stereo not given), 130 to 131 °C; with `CN(C)c1cccc2c(S(N)(=O)=O)cccc12`, 220 °C.
`O=C1OC(c2ccc(O)cc2)(c2ccc(O)cc2)c2ccccc21` showed a melting point of 260 to 262 °C.
`C=C(CC(=O)OC)C(=O)OC` gave a melting point of 36 to 38 °C.
Regarding `CCc1ccc(C)nc1`, the melting point is -71 to -70.9 °C.
The molecule `Clc1ccc(Br)cc1Cl` came in with a melting point of 24 to 25 °C.
With `O=Cc1ccc(CO)o1` the figure was 31.5 to 34 °C; with `Cc1cc(C)c(C(=O)O)c(C)c1`, 152 to 154 °C.
With `O=[N+]([O-])c1ccccc1-c1ccccc1` the figure was 37 to 37.2 °C.
With `CCC1=CCCCC1` the figure was -110 °C.
`COc1cc(CCC(C)=O)ccc1O` gave a melting point of 40.5 to 41 °C.
With `O=C=Nc1ccc([N+](=O)[O-])cc1` the figure was 57 to 58 °C; with `CCCCCCC(C)O` (stereo not given), -32 to -31.6 °C; with `CCCCCCCCCCCCCCCCCCCCCCCCCCCCCCCCCCCCCCCC`, 81 to 82 °C.
The value for `Cc1cc(Cl)ccc1O` was 47 to 51 °C; that for `SCCS` was -41.2 to -41 °C; that for `O=Cc1cc(Br)c(O)c(Br)c1` was 181 to 182 °C.
Molecule `O=CO` came in with a melting point of 8 to 8.32 °C.
The value for `N#CCc1cccc(Cl)c1` was 11.5 to 12 °C.
With `COc1cc(Cc2cnc(N)nc2N)cc(OC)c1OC` the figure was 200 to 201 °C; with `O=C(O)c1ccc(O)cc1`, 214 to 217 °C; with `O=C1OC(=O)c2cccc3cccc1c23`, 270 to 271 °C.
Molecule `BrCCCCBr` registered a melting point of -20 to -16.5 °C.
With `CC(C)(C)OO` the figure was -8 to -3 °C; with `ClCCCCCCl`, -73 to -72 °C.
`[O-][S+](Cc1ccccc1)Cc1ccccc1`: the melting point was in the range of 133 to 134 °C.
The value for `Nc1cc(Cl)c(O)c(Cl)c1` was 167 to 168 °C; that for `Fc1c(F)c(F)c2c(F)c(F)c(F)c(F)c2c1F` was 87 to 87.5 °C.
`COC(=O)OC` gave a melting point of 1 to 4 °C.
The value for `Nc1ccc2c(c1)CCC2` was 35 to 37.5 °C.
The value for `CC(C)C(N)=O` was 128 to 129 °C; that for `O=C(O)C(F)(F)Cl` was 22 to 25 °C; that for `Nc1ccc(C(=O)O)cc1` was 188 to 189 °C.
With `CC1=CCCCC1` the figure was -120 °C; with `CCCC(C)=O`, -78 to -76.9 °C; with `CC(C)(CO)CO`, 125 to 130 °C.
`CC(=O)Nc1ccc([N+](=O)[O-])cc1`: the melting point was 215 to 216 °C.
The value for `O=C(Cl)c1ccc2ccccc2c1` was 50 to 51 °C.
The value for `CCCCCCCCCCCCCCCC(=O)OC` was 30 to 31 °C.
With `c1cc(-c2ccncc2)ccn1` the figure was 111 to 113 °C; with `CCCCCCCCCCCCCCCCCCCCO`, 64 to 66.1 °C.
Molecule `Cl[SiH](Cl)Cl` displayed a melting point of -127 to -126 °C.
The value for `Nc1ccccc1` was -6.3 to -6 °C; that for `Cc1c(C)c(C)c(CCl)c(C)c1C` was 82 to 83 °C.
The value for `N#CC(Cl)(Cl)Cl` was -44 to -42 °C; that for `c1ccc(OCC2CO2)cc1` (stereo not given) was 3.5 to 4 °C.
The value for `c1ccc2cc(-c3ccc4ccccc4c3)ccc2c1` was 187 to 188 °C; that for `CC(=O)NN` was 64 to 67 °C.
Molecule `CC(C)C1CCCC1` showed a melting point of -111 °C.
With `Nc1ccc(F)cc1` the figure was -2 to -0.8 °C; with `FC(F)(F)c1ccccc1Cl`, -7.4 to -6 °C.
`CN1CCN(CCCN2c3ccccc3Sc3ccccc32)CC1`: the melting point was in the range of 52 to 53 °C.
The value for `CC(C)=CC=C(C)C` was 12 to 13 °C.
`Nc1cccc(CO)c1` came in with a melting point of 93 to 95 °C.
The value for `CCOC(=O)Cc1c[nH]c2ccccc12` was 43 to 44.5 °C; that for `O=C1CSC(=S)N1` was 169 to 170 °C; that for `Cc1ccc(Cl)c(Cl)c1` was -15.2 to -15 °C.
The value for `O=C(O)Cc1sc(-c2ccccc2)nc1-c1ccc(Cl)cc1` was 161 to 162 °C.
The value for `C#CCCC(=O)O` was 56 to 57.7 °C; that for `C1=Cc2cccc3cccc1c23` was 91 to 92.5 °C.
`c1ccc(NC2CCCCC2)cc1`: the melting point is 15 to 16 °C.
In turn, `O=C(c1ccccc1)c1ccccc1O` showed a melting point of 39 to 40 °C.
With `CCCCCCC` the figure was -91 to -90.6 °C; with `CC(=O)OCc1ccccc1`, -51.3 to -51 °C; with `O=[N+]([O-])c1ccc(Cl)c(Cl)c1Cl`, 55 to 56 °C.
The value for `N#CN` was 44 to 45.6 °C.
Molecule `c1ccc2c(c1)Cc1ccccc1O2` had a melting point of 100 to 102 °C.
On to `O=C(O)Cc1c(Cl)ccc(Cl)c1Cl`, for which the melting point is 156 to 161 °C.
The value for `CCOC(=O)C(=O)Nc1ccccc1` was 65.5 to 67 °C; that for `COC(=O)c1cc(Cl)ccc1[N+](=O)[O-]` was 48.5 to 49 °C; that for `CCC(C)C(=O)OC1CC(C)C=C2C=CC(C)C(CCC3CC(O)CC(=O)O3)C21` (stereo not given) was 174 to 175 °C.
With `Brc1ccc(-c2ccccc2)cc1` the figure was 90 to 91.5 °C.
With `CC1=CC(=O)CC(C)(C)C1` the figure was -8.1 to -8 °C; with `N#Cc1ccccc1N`, 47 to 51 °C; with `Oc1cc(O)cc(O)c1`, 218 °C.
With `CCCCSC`, the melting point was -98 to -97.8 °C.
With `CCCCCCCCCCCCCC` the figure was 5.5 to 6 °C; with `NC(=O)c1ccc(Br)cc1`, 191 to 192 °C.
As to `COP(=S)(OC)SCn1nnc2ccccc2c1=O`, the melting point fell in the range of 72 to 73 °C.
The value for `CCCCCCCCCCCCC(=O)O` was 41.5 to 44.5 °C; that for `Nc1ccc2ccc3cccc4ccc1c2c34` was 116 to 118 °C; that for `O=S(Cl)Cl` was -105 to -104 °C.
The value for `CCC(=O)c1ccccc1` was 18 to 19 °C.
The value for `Fc1c(F)c(F)c(C(F)(F)F)c(F)c1F` was -66 to -65.6 °C.
For `CCCCCCCCCCCCCCCCC(=O)O`, the melting point fell in the range of 60 to 61.3 °C.
In turn, `Clc1ccc(SSc2ccc(Cl)cc2)cc1` had a melting point of 68 to 73 °C.
With `COc1ccccc1C(=O)O` the figure was 99 to 101 °C; with `CC1CCC(=O)CC1`, -41 to -40.6 °C; with `O=C(O)c1cc(Br)ccc1Br`, 155 to 157 °C.
`c1ccc(-c2cnc(-c3ccc(-c4ncc(-c5ccccc5)o4)cc3)o2)cc1`: the melting point lay in the range of 242 to 245 °C.
With `OCc1ccc(Cl)c(Cl)c1` the figure was 36 to 38 °C; with `COc1ccc(C(=O)c2ccccc2)c(O)c1`, 64 to 65.5 °C; with `CCN(CC)c1ccc(Br)cc1`, 34 to 38 °C.
With `Cc1cccs1` the figure was -63.4 to -63 °C.
With `Nc1nc(Cl)cc(Cl)n1` the figure was 220 °C.
Molecule `NC(CC(=O)O)C(=O)O` (stereo not given) came in with a melting point of 270 to 275 °C.
The value for `O=[N+]([O-])c1cc(C(F)(F)F)cc([N+](=O)[O-])c1Cl` was 56 to 57 °C; that for `Cc1cccc(C)c1C` was -25.4 to -25 °C.
The value for `c1ccc2cnncc2c1` was 90.5 to 91 °C; that for `O=C(O)C(Cl)Br` (stereo not given) was 27 to 31.5 °C.
The value for `COC(=O)c1ccccc1O` was -9 to -7 °C; that for `O=C(Cl)c1ccccc1C(=O)Cl` was 12 to 15.5 °C; that for `Nc1nc(N)nc(-c2ccccc2)n1` was 226 to 227 °C.
As for `CC(Cl)Cl`, the melting point was -97 to -96.9 °C.
The value for `C=CCCCCCCCCCCCCC` was -4 to -2.8 °C; that for `CC(=O)Oc1ccc(C(=O)O)cc1` was 192 to 194 °C; that for `COCOC` was -105 °C.
The value for `O=[N+]([O-])c1cc(C(F)(F)F)ccc1Cl` was -3 to -2.5 °C; that for `O=P(O)(O)c1ccccc1` was 161 to 164 °C; that for `S=C=Nc1cccc2ccccc12` was 56 to 58 °C.
The value for `COc1ccc(NC(C)=O)cc1` was 127 to 131 °C.
In the case of `c1ccc2c(c1)CCc1ccccc1N2`, the melting point fell in the range of 106 to 107 °C.
`O=Cc1ccc(O)cc1` showed a melting point of 117 to 118 °C.
With `C=C(C)C` the figure was -140 °C.
As to `CCCCCCCCCCC(C)=O`, the melting point is 19 to 21 °C.
As for `O=C1C(Br)=CC(=NCl)C=C1Br`, the melting point fell in the range of 80 to 83 °C.
The value for `O=[N+]([O-])c1ccc(I)cc1` was 173 to 176 °C; that for `c1ccc2c(c1)ccc1ccccc12` was 99 to 101 °C; that for `Clc1cccc(Cl)c1` was -25 to -24.8 °C.
With `OC/C=C/c1ccccc1` the figure was 30 to 34 °C.
With `ClCC(Cl)CCl` the figure was -15 to -14 °C; with `CCNc1nc(Cl)nc(NCC)n1`, 226 to 228 °C; with `C=CCc1ccc(O)c(OC)c1`, -10 to -9 °C.
With `C=CC`, the melting point was -185 °C.
The value for `Cc1ccccn1` was -70 to -66.7 °C.
`NNC(=O)c1ccccc1O` came in with a melting point of 148 °C.
With `C/C=C/C=O` the figure was -76.5 to -76 °C; with `CC1(C)CCCC1`, -70 to -69.8 °C; with `O=C1CSC(=O)N1`, 125 to 128 °C.
`CCCCOC(=O)c1ccc(O)cc1` returned a melting point of 68.5 to 72 °C.
The value for `O=C(Oc1cccc(O)c1)c1ccccc1` was 132 to 134 °C.
With `O=c1[nH]c2ccccc2o1` the figure was 138 to 140 °C.
